± gives the expanded uncertainty stated by the source.
Assay: molar heat capacity at constant pressure
Conditions: 101.33 kPa, Liquid, Small sample (50 mg) DSC

Compound | molar heat capacity at constant pressure (296.2 K) | molar heat capacity at constant pressure (300.2 K) | molar heat capacity at constant pressure (304.2 K) | molar heat capacity at constant pressure (308.2 K) | molar heat capacity at constant pressure (312.2 K) | molar heat capacity at constant pressure (316.2 K) | molar heat capacity at constant pressure (320.2 K) | molar heat capacity at constant pressure (324.2 K) | molar heat capacity at constant pressure (328.2 K) | molar heat capacity at constant pressure (332.2 K) | molar heat capacity at constant pressure (336.2 K) | molar heat capacity at constant pressure (340.2 K) | molar heat capacity at constant pressure (344.2 K) | molar heat capacity at constant pressure (348.2 K) | molar heat capacity at constant pressure (352.2 K) | molar heat capacity at constant pressure (356.2 K) | molar heat capacity at constant pressure (360.2 K) | molar heat capacity at constant pressure (364.2 K) | molar heat capacity at constant pressure (368.2 K) | molar heat capacity at constant pressure (372.2 K)
CCCCn1cc[n+](C)c1.N#CN=C=[N-] [1-butyl-3-methylimidazolium dicyanamide] | 359.41 ± 58 J/K/mol | 361.87 ± 58 J/K/mol | 363.1 ± 58 J/K/mol | 364.34 ± 58 J/K/mol | 365.98 ± 59 J/K/mol | 367.21 ± 59 J/K/mol | 368.65 ± 59 J/K/mol | 370.08 ± 60 J/K/mol | 372.14 ± 60 J/K/mol | 374.39 ± 60 J/K/mol | 377.47 ± 61 J/K/mol | 380.35 ± 61 J/K/mol | 383.63 ± 62 J/K/mol | 386.71 ± 62 J/K/mol | 390.4 ± 63 J/K/mol | 394.51 ± 63 J/K/mol | 398.82 ± 64 J/K/mol | 403.34 ± 65 J/K/mol | 408.26 ± 65 J/K/mol | 413.6 ± 67 J/K/mol
CCCCn1cc[n+](C)c1.N#C[S-] [1-butyl-3-methylimidazolium thiocyanate] | 319.63 ± 51 J/K/mol | 319.63 ± 51 J/K/mol | 320.22 ± 51 J/K/mol | 321.21 ± 51 J/K/mol | 322.98 ± 52 J/K/mol | 324.36 ± 52 J/K/mol | 325.55 ± 52 J/K/mol | 326.93 ± 52 J/K/mol | 329.1 ± 53 J/K/mol | 331.27 ± 53 J/K/mol | 333.64 ± 54 J/K/mol | 336 ± 54 J/K/mol | 338.57 ± 54 J/K/mol | 341.13 ± 55 J/K/mol | 344.29 ± 55 J/K/mol | 347.05 ± 56 J/K/mol | 350.21 ± 56 J/K/mol | 353.37 ± 57 J/K/mol | 356.72 ± 57 J/K/mol | 360.27 ± 58 J/K/mol
CCn1cc[n+](C)c1.N#C[C-](C#N)C#N [1-ethyl-3-methyl-1H-imidazolium tricyanomethanide] | 357.18 ± 57 J/K/mol | 360.2 ± 58 J/K/mol | 362.41 ± 58 J/K/mol | 363.82 ± 58 J/K/mol | 365.83 ± 59 J/K/mol | 367.44 ± 59 J/K/mol | 368.85 ± 59 J/K/mol | 370.26 ± 60 J/K/mol | 372.07 ± 60 J/K/mol | 374.49 ± 60 J/K/mol | 376.9 ± 61 J/K/mol | 379.31 ± 61 J/K/mol | 381.73 ± 61 J/K/mol | 384.35 ± 62 J/K/mol | 387.16 ± 62 J/K/mol | 390.18 ± 63 J/K/mol | 393 ± 63 J/K/mol | 396.22 ± 64 J/K/mol | 399.24 ± 64 J/K/mol | 403.06 ± 65 J/K/mol
CCn1cc[n+](C)c1.N#CN=C=[N-] [1-ethyl-3-methylimidazolium dicyanamide] | 323.76 ± 52 J/K/mol | 325.88 ± 52 J/K/mol | 328.01 ± 53 J/K/mol | 329.96 ± 53 J/K/mol | 332.44 ± 53 J/K/mol | 334.21 ± 54 J/K/mol | 335.81 ± 54 J/K/mol | 337.76 ± 54 J/K/mol | 340.24 ± 55 J/K/mol | 342.89 ± 55 J/K/mol | 345.55 ± 55 J/K/mol | 348.21 ± 56 J/K/mol | 351.22 ± 56 J/K/mol | 354.41 ± 57 J/K/mol | 357.78 ± 57 J/K/mol | 361.15 ± 58 J/K/mol | 364.87 ± 59 J/K/mol | 368.59 ± 59 J/K/mol | 372.49 ± 60 J/K/mol | 376.74 ± 60 J/K/mol
CCn1cc[n+](C)c1.N#C[S-] [1-ethyl-3-methylimidazolium thiocyanate] | 284.51 ± 46 J/K/mol | 284.17 ± 46 J/K/mol | 285.18 ± 46 J/K/mol | 286.2 ± 46 J/K/mol | 287.89 ± 46 J/K/mol | 289.25 ± 47 J/K/mol | 290.6 ± 47 J/K/mol | 292.12 ± 47 J/K/mol | 293.98 ± 47 J/K/mol | 296.18 ± 48 J/K/mol | 298.22 ± 48 J/K/mol | 300.59 ± 48 J/K/mol | 303.12 ± 49 J/K/mol | 305.49 ± 49 J/K/mol | 308.2 ± 49 J/K/mol | 310.91 ± 50 J/K/mol | 313.96 ± 50 J/K/mol | 317.17 ± 51 J/K/mol | 320.05 ± 51 J/K/mol | 323.43 ± 52 J/K/mol
O=S1(=O)CCCC1 [sulfolane] |  |  |  | 182.42 ± 29 J/K/mol | 183.5 ± 29 J/K/mol | 184.7 ± 30 J/K/mol | 185.9 ± 30 J/K/mol | 187.11 ± 30 J/K/mol | 188.79 ± 30 J/K/mol | 190.47 ± 31 J/K/mol | 192.39 ± 31 J/K/mol | 194.32 ± 31 J/K/mol | 196.36 ± 31 J/K/mol | 198.52 ± 32 J/K/mol | 200.81 ± 32 J/K/mol | 203.21 ± 33 J/K/mol | 205.73 ± 33 J/K/mol | 208.26 ± 33 J/K/mol | 210.9 ± 34 J/K/mol | 213.66 ± 34 J/K/mol

— the NIST ThermoML archive (doi:10.1021/je400140n)
